Reference: US9523082B2, “Firefly luciferase” (priority 2014, dated 2016)
Like-named read-outs stand apart in the source and are kept apart here.

System: SP2 luciferase (Luciola sp2 firefly luciferase), wild type, SEQ ID NO: 1
Assay: Km of SP2 luciferase for D-luciferin and ATP (luminescence kinetics, Michaelis-Menten fit)
Format: biochemical, Luciola sp2 (Malaysian firefly)
Conditions: for Km: 0.1 M Tris-HCl pH 8.0, MgSO4 8 mM in injected solution
Protocol: The measurements were carried out ten times for each sample, and the average of absorbency was used for the calculation.
A solution of 0.1 M Tris-HCl (pH 8.0) containing each of the purified luciferase, 4 mM of ATP, and 8 mM of MgSO4 was connected to the standard pump of the luminometer, and the measurements was carried out at the same time as addition of 50 μl of the solution to the well. A Luminescensor (ATTO) was used for the measurements. Measurements were repeated 3 times for each luciferin concentration.
The peak intensity of the obtained photo count value was plotted with respect to luciferin concentration S, defining the initial rate as V. The plots were subjected to curve fitting of Michaelis Menten type, thereby giving Km values. The curve fitting was performed by a nonlinear least-squares method, and the search of the parameter was performed by a Newton method.
Under various ATP concentrations, the luminous intensity of the obtained luciferase was measured. Based on the results, Km values with respect to ATP was determined.
Various 12 types of ATP solutions were prepared by adding ATP to 0.1 M Tris-HCl (pH 8.0). These solutions contain ATP at final concentration of 5, 10, 20, 40, 80, 160, 320, 480, 640, 800, 1280, 1600, or 1920 μM. These ATP solutions were each injected into 96-hole in a microplate at a volume of 50 μl. […] Measurement was repeated 3 times for each ATP concentration.
The peak intensities of the obtained photon count value were plotted with respect to ATP concentration S, with an initial rate V. The plots were subjected to curve fitting of Michaelis Menten type, thereby giving Km value. The curve fitting was performed by a nonlinear least-squares method, and the search of the parameter was performed by a Newton method.

Compound	Km with respect to D-luciferin, compared with known luciferase (FIG. 2) (comparison in words)	Km (read-out: Km D-luciferin, ATP 4 mM) [µM]	Km (D-luciferin 1 mM, read-out: Km ATP) [µM]	Km with respect to ATP, compared with known luciferase (FIG. 2) (comparison in words)
O=C(O)[C@H]1CSC(c2nc3ccc(O)cc3s2)=N1 [D-luciferin]	higher Km values	4.25	–	–
Nc1ncnc2c1ncn2[C@@H]1O[C@H](COP(=O)(O)OP(=O)(O)OP(=O)(O)O)[C@@H](O)[C@H]1O [ATP]	–	–	188	higher Km values
